The text below walks through data of patent US20150004110A1, “NOVEL ANTI-AGING AND DEPIGMENTING COSMETIC COMPOSITIONS” (DIVERCHIM, priority 2011, published 2015).

The target in series [1] is T1, PPARα (h) (Homo sapiens, UniProt Q07869).
T1 sequence (Q07869 1-468): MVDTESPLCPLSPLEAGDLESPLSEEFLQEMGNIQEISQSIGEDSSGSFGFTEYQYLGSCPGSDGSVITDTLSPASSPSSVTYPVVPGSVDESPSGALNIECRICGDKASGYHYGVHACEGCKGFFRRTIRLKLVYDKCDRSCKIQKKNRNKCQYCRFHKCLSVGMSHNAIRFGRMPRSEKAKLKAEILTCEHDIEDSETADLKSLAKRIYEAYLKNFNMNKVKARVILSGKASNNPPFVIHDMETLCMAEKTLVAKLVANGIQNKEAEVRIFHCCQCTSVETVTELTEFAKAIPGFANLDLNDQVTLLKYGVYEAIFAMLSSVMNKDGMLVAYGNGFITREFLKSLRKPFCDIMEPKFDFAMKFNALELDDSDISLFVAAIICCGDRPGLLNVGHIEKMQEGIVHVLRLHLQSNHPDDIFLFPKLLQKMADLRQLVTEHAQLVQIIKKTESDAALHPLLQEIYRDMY
Kind of series: PPARα antagonist effect, coactivator Alpha screen. The class given is biochemical. The protocol:
The agonist or antagonist activity of compound 1 on the PPAR receptors was tested by fluorescence techniques. • Material and Methods
The results are expressed as: • percentage of control specific agonist response (measured specific response/control specific agonist response)×100) and • percentage inhibition of the control specific agonist response (100−((measured specific response)/control specific agonist response)×100)) obtained in the presence of compound 1.
The EC50 values (concentration at which the maximum specific response is 50%) and the IC50 values (concentration at which the maximum control specific agonist response is inhibited by 50%) are determined by non-linear regression analysis of the concentration-response curves with a mean replicated value using adjustment of Hill's equation
For the antagonists, the apparent dissociation constants (KB) were calculated using the modified Cheng-Prusoff equation

The subject of the next series is B16 melanocytes. Nature of the series: Cell viability, MTT reduction test. The class given is cell-based. The method, then: The melanocytes were seeded in a 96-well plate and were cultured for 24 h (37° C., 5% CO2, DMEM 1 g/L glucose without phenol red supplemented with glucose at 3 g/L, L-glutamine at 2 mM, penicillin at 50 U/mL, streptomycin at 50 μg/mL, foetal calf serum (FCS) at 10%). After incubation, the culture medium was then replaced with culture medium supplemented or not supplemented (unstimulated control) with a stable derivative of α-MSH and containing or not containing (controls) the test compounds or the reference (kojic acid at 25, 100, 400, 800 μg/mL). Each experiment was carried out with n=3, apart from the controls carried out with n=6, then the cells were incubated for 72 h. Wells without cells received in parallel the same quantities of medium supplemented or not supplemented with NDP-MSH and containing or not containing the test compounds or the reference in order to quantify the background noise associated with the presence of the compounds. At the end of the treatment, the cells were incubated in the presence of MTT (tetrazolium salt), the transformation of which to blue crystals of formazan is proportional to the activity of succinate dehydrogenase (mitochondrial enzyme). After dissociation of the cells, the formazan was dissolved in DMSO medium and the optical density (OD), representative of the number of living cells and of their metabolic reactivity, was measured with a microplate reader at 540 nm (VERSAmax, Molecular Devices). The operating conditions are the same as in Example 12.
Background: Formazan colour is commonly taken as a measure of viable cells.

The next series has as its system prostaglandin E2 (PGE2). Kind of series: Release of PGE2 by NCTC-2544 keratinocytes stimulated by PMA. The class given is cell-based, human. The following applies: NCTC-2544 stimulated by PMA. The method, then:
The effects of compound 1 were evaluated on two routes of inflammation, the “chemokine” route and the “prostaglandin” route, by measuring the release of interleukin-8 (IL-8) and of prostaglandin E2 (PGE2) by a human keratinocyte line NCTC-2544 stimulated by phorbol-myristate acetate (PMA).

Series [2] concerns the target T1, PPARα (h). Kind of series: PPARα competitive radioligand binding assay (Cerep). The method, then: The affinity of compound 1 for the PPAR receptors (α and γ) was tested by in vitro binding assays (tests carried out by the company Cerep).
This is a nuclear receptor competitive binding assay, between a radiolabelled ligand and the test molecule (here compound 1).
The principle of the technique consists of measuring the displacement of the radioactive ligand bound to the receptor by the test molecule. • Material and Methods
The specific binding of the ligand is defined by the difference between total binding and non-specific binding determined in the presence of an excess of unlabelled ligand.
The results are expressed as: • percentage of control specific binding ((measured specific binding/control specific binding)×100)) • percentage of inhibition of control specific binding ((100−(measured specific binding/control specific binding)) obtained in the presence of compound 1.
The values of IC50 (concentration at which the maximum control specific binding is inhibited by 50%), and the Hill coefficient (nH) are determined by non-linear regression analysis of the curves of competition with a mean replicated value using adjustment of Hill's equation
The inhibition constant (Ki) was calculated using the Cheng-Prusoff equation

Series [3] relates to matrix metallopeptidase gene MMP9. Nature of the series: RT-qPCR expression of MMP9 in keratinocytes. The class given is cell-based, human. The following applies: 10 μM. The protocol:
The expression of the specific markers was evaluated by RT-qPCR (reverse transcription quantitative polymerase chain reaction) on messenger RNAs extracted from the cell lawns from each treatment. The transcriptomic profile contains 64 genes selected for their importance in keratinocyte differentiation. The PCR reactions (polymerase chain reactions) were carried out by quantitative PCR with the “Light Cycler” system (Roche Molecular System Inc.) according to the procedures recommended by the supplier. Normal human epidermal keratinocytes were incubated in the presence of compound 1 or a reference with calcium chloride. The expression of the specific markers was evaluated by RT-qPCR on the messenger RNAs extracted from the cell lawns from each treatment.
A general note: Quantitative PCR measures a nucleic acid by following its amplification.

The next series has as its system Transglutaminase K, TGK. Nature of the series: In situ immunolabelling of TGK in keratinocytes. The following applies: normal human epidermal keratinocytes. It counts as cell-based. An excerpt: Transglutaminase K, TGK, and filaggrin are two protein markers of epidermal differentiation involved in arrangement of the keratin filaments and formation of the envelope of the stratum corneum.

One may read the inhibition as the drop in the measured response relative to a control, in per cent. Regarding `Oc1ccccc1CCOc1ccc(F)cc1` [Compound 1, 2-[2-(4-fluoro-phenoxy)-ethyl]-phenol], the inhibition at 10 µM was found to be 4% on PPARα (h) [1] (10^−5 M, read-out: % Inhibition of control agonist response) and 0% at PPARα (h) [2] (10^−5 M, agonist radioligand, read-out: % Inhibition of control specific binding). Moreover, the inhibition at 1 µM at PPARα (h) [1] (10^−6 M, read-out: % Inhibition of control agonist response) is 0%; at PPARα (h) [2] (10^−6 M, agonist radioligand, read-out: % Inhibition of control specific binding), -2%. Further, the inhibition at 0.1 µM on PPARα (h) [1] (10^−7 M, read-out: % Inhibition of control agonist response) was 1%; at PPARα (h) [2] (10^−7 M, agonist radioligand, read-out: % Inhibition of control specific binding), -5%. The “PPARα antagonist activity (conclusion in words)” value at PPARα (h) [1] (10^−7 to 10^−5 M) is listed as “not an antagonist”. The “Viability (MTT) % stimulated control” value came to 83% with B16 melanocytes (10 μM, B16, 72 h, Table 2); 86% in the series with B16 melanocytes (30 μM, B16, 72 h, Table 2); 85% with B16 melanocytes (30 μM, comparison with 2 reference molecules, Table 3); 22% with B16 melanocytes (100 μM, B16, 72 h, Table 2); 13% in the series with B16 melanocytes (100 μM, comparison with 2 reference molecules, Table 3). Further, in the series with prostaglandin E2 (PGE2), the “Release of PGE2” value is “concentration-dependent inhibition”. Also, on PPARα (h) [2] (10^−7 to 10^−5 M), the “Activity with respect to the PPARα receptor (binding, conclusion in words)” value is recorded as “no activity”. The “Expression of the MMP9 gene” value in series [3] was “inhibition of expression”. Besides, in the series with Transglutaminase K, TGK, the “Protein expression of TGK” value is reported as “concentration-dependent stimulation of protein expression”.
